# Numbers after ± are expanded uncertainties.
# Assay: xn = mol fraction of the nth substance listed
# Details: 100 kPa, Liquid; for viscosity: Concentric cylinders viscometry; for mass density: Vibrating tube method
smiles,measurement,setting,value
C[N+](C)(C)CCO.[Cl-] [choline chloride] + Oc1ccccc1,viscosity,"293.15 K, x1 = 0.2",39 ± 1.7 mPa·s
same,viscosity,"293.15 K, x1 = 0.25",58.16 ± 1.9 mPa·s
same,mass density,"293.15 K, x1 = 0.2",1093 ± 2 kg/m3
same,mass density,"293.15 K, x1 = 0.25",1096 ± 2 kg/m3
same,viscosity,"303.15 K, x1 = 0.2",24.67 ± 0.88 mPa·s
same,viscosity,"303.15 K, x1 = 0.25",35.76 ± 1.4 mPa·s
same,mass density,"303.15 K, x1 = 0.2",1087 ± 2 kg/m3
same,mass density,"303.15 K, x1 = 0.25",1089 ± 2 kg/m3
same,viscosity,"313.15 K, x1 = 0.2",16.69 ± 0.58 mPa·s
same,viscosity,"313.15 K, x1 = 0.25",23.53 ± 0.84 mPa·s
same,mass density,"313.15 K, x1 = 0.2",1080 ± 2 kg/m3
same,mass density,"313.15 K, x1 = 0.25",1083 ± 2 kg/m3
same,viscosity,"323.15 K, x1 = 0.2",11.83 ± 0.4 mPa·s
same,viscosity,"323.15 K, x1 = 0.25",16.42 ± 0.56 mPa·s
same,mass density,"323.15 K, x1 = 0.2",1073 ± 2 kg/m3
same,mass density,"323.15 K, x1 = 0.25",1077 ± 2 kg/m3
same,viscosity,"333.15 K, x1 = 0.2",8.825 ± 0.32 mPa·s
same,viscosity,"333.15 K, x1 = 0.25",12.02 ± 0.36 mPa·s
same,mass density,"333.15 K, x1 = 0.2",1067 ± 2 kg/m3
same,mass density,"333.15 K, x1 = 0.25",1071 ± 2 kg/m3
